Where “and” joins values, the source holds several entries; their conditions need not be identical. Equal values may be shown once. Entries after “also recorded” stand apart in the source; their conditions may differ. Read-outs that look alike come from different tables or passages of the source.
How the values were obtained:
mouse-skin papillomas = assay: Suppression of DMBA-initiated and TPA-promoted mouse-skin papillomas; assay type: in vivo; conditions: mouse-skin papilloma assay
Excerpt: (§1) Earlier, several alkyl, alkenyl, or alkynyl retinyl ethers had been assayed for inhibition of TPA-induced ornithine decarboxylase (ODC) in mouse skin and for the suppression of DMBA-initiated and TPA-promoted mouse-skin papillomas (Shealy et al., 1997). In comparison with control groups, these retinyl ethers were ineffective. Only a few representatives of the benzyl ethers were selected for tests in these assays. […] Because of these and the earlier results (Shealy et al., 1997), testing of retinyl benzyl ethers in the ODC and papilloma assays was discontinued.

[1] = test system: TPA-induced ornithine decarboxylase (ODC); assay: Inhibition of TPA-induced ornithine decarboxylase (ODC) in mouse skin; assay type: in vivo
Excerpt: as §1

[2] = molecular target: T1, cellular retinol-binding protein (CRBP) (Rattus norvegicus, UniProt P02696); assay: Binding to cellular retinol-binding protein (CRBP): inhibition of [3H]retinol binding, sucrose density-gradient sedimentation; conditions: for Percent Inhibition of [3H] Retinol Binding (CRBP Assay): 150-fold molar excess of unlabelled test retinoid, rat testes cytosol
T1 construct: portions of rat testes cytosol (1 mg protein) were incubated; from tissue; host or cells: rat testes cytosol
T1 sequence (P02696 1-135): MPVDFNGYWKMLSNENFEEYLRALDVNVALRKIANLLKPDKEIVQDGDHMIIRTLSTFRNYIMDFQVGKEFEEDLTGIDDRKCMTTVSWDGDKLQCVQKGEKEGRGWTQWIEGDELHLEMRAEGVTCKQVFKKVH
Experimental: Binding affinities of the retinyl ethers for CRBP were determined by sucrose, density-gradient, sedimentation analysis as described before (Sani et al., 1980). Briefly, portions of rat testes cytosol (1 mg protein) were incubated with [^3 H]retinol (50 pmol) in the presence or absence of a 150-fold molar excess of unlabeled retinol or the test retinoids. The preparations after dialysis were analyzed by 5-20% sucrose density gradient sedimentation. For measuring the competitive binding of the unlabeled retinoids, inhibition of [^3 H]retinol binding to CRBP by unlabeled retinol is regarded as 100%. The mean and standard deviation calculated from the relative inhibitions obtained from multiple determinations were used as the relative binding affinities of the various retinyl ethers.
The group of retinyl benzyl ethers has now been evaluated for binding to CRBP. Binding to CRBP, as defined for Table I, at approximately 60% or higher was rated as strong; at 40-60%, as moderate; at 20-40%, as low.
^a Per cent inhibition of binding of tritiated retinol to CRBP by a
150-fold molar excess of the unlabelled test retinoid (Sani et al., 1980,

[3] = Mammary tissue-to-plasma concentration after intravenous dosing; assay type: in vivo, rat (female Sprague-Dawley); conditions: rat, 5 mg/kg i.v., after 24 hr, read-out: ratio of mammary tissue-to-plasma concentrations
[4] = test system: MNU-induced mammary cancer; assay: Short-term (90-day) assay against MNU-induced mammary cancer in rats (Expts. 2 and 3); assay type: in vivo, rat (female Sprague-Dawley)
Experimental: Retinoid diet mixtures were stored at 4° C. […] The animals were palpated for mammary tumors 2×/week. […] Also, five rats/group had complete necropsies performed.
The 2,5-dimethoxybenzyl (3b) and 4-methoxybenzyl (3e) ethers were tested in the same way in a 90-day study. […] The 2,5-dimethybenzyl (3c) and the 2,3-dimethoxybenzyl (3h) ethers, together with RTMBE for comparison, were likewise assayed according to the same methodology. Prior to the beginning of this study, specimens of the retinoid-diet mixtures were placed under the conditions that were employed during the storage and feeding of RTMBE, 3c, and 3h. The specimens were extracted with butanol, and the extracts were analyzed by HPLC. […] Testing of 3c and 3h was discontinued, but the RTMBE study was continued until the duration of the study was 180 days (Table 6). The results were similar to those of Experiment 1 (Table 3). The averages of the number of tumors per rat were reduced by 32-35%; in addition, the averages of the tumor weights per rat was 56-70% lower than the average tumor burden of the control group.
and was continued until the studies of 3b, 3c, 3e, and 3h were terminated
90 days after administration of MNU. The RTMBE experiment was continued
until 180 days after MNU administration (Table VI).
kilogram of Teklad diet.

[5] = Stability of retinyl ethers in storage and in solution; assay type: physicochemical; conditions: weakly acidic ethanol solution
[6] = molecular target: T1, cellular retinol-binding protein (CRBP); conditions: Sani, 1993; Sani et al., 1996; Shealy et al., 1997; cited from earlier work
[7] = test system: NADPH-requiring enzymes in rat liver microsomes; conditions: literature; cited from earlier work
[8] = test system: serum retinol-binding protein (RBP); conditions: 150-fold molar excess; Sani et al., 1996; cited from earlier work
[9] = cited from earlier work; for stability in refluxing ethanol: 24 hours or similar, protected from light and air, Shealy et al, 1997
[10] = rat, in feed; Shealy et al., 1997; cited from earlier work
[11] = Toxicity of retinyl ethers in mice by gavage during 28-29 days
Experimental: Toxicological evaluations involving measurement of body weights and observations of clinical signs characteristic of retinoid toxicity were accomplished as previously described (Lin et al., 1996).
RTMBE and two of its analogues, together with RME and RPE, were selected for estimation of their toxicities to mice when administered during 28-29 days by gavage in corn oil (Table 8). Mice were evaluated for changes in body weight and for signs of clinical retinoid toxicity (hypervitaminosis A) including alopecia, scaly skin, and limping. In the first experiment, these retinyl ethers were given at equimicromolar doses at three dose levels. The retinyl benzyl ethers (RTMBE, 3c, and 3e) were then tested at higher doses in a second experiment.

[12] = test system: carcinogen-induced mammary cancer; conditions: cited from earlier work; for suppression of MNU-induced mammary cancer: Thompson et al., 1978 / Shealy et al.
[13] = Shealy et al., 1997, cited from earlier work; for toxicity in mammary carcinogenesis study: 2 mmol/kg of diet; for toxic dose in the feed after 90 days: Sprague-Dawley rats
[14] = test system: serum retinol-binding protein (RBP); assay: Binding to serum retinol-binding protein (RBP): inhibition of [3H]retinol binding; conditions: % of that of retinol
[15] = test system: MNU-induced mammary tumors
Experimental: The methods employed in the preparation of diets, analyses of retinoid-dietspecimens, and dietary treatment with retinoids of MNU-induced mammary carcinogenesis in Sprague-Dawley rats were described previously (Grubbs et al., 1995; Shealy et al., 1997). Briefly, diets were prepared by mixing each retinoid with Wayne meal or Teklad (4%) mash diet. For each kg of diet, the retinoid was dissolved in 12 g ethanol, 19 g trioctanoin, 0.05 mL Tenox 20, and 0.05 mL d,1-alpha tocopherol prior to incorporation into the feed using a Patterson-Kelly blender. Retinoid diet mixtures were stored at 4° C. Portions of each retinoid-diet mixture were analyzed for the added retinoid to ensure homogeneity. Female Sprague-Dawley rats received an i.v. injection of MNU (45 mg/kg body weight) at 50 days of age. Diet supplementation with retinoids was initiated three days after MNU. A group of rats receiving retinyl acetate (1 mmol/kg of diet) served as the positive control. The animals were palpated for mammary tumors 2×/week. At termination of the study, mammary tumors were processed for histological classification. Also, five rats/group had complete necropsies performed. The tissues were examined histologically for pathological lesions as additional toxicological evaluation. Extracts of the liver and mammary gland (5 rats/group) were analyzed by HPLC for retinyl palmitate and/or for the dosed retinoid. Statistical analyses of cancer incidence and latency were determined using logrank analysis, while differences in cancer multiplicity were determined employing the Armitage test.
^b Average number of palpable mammary tumors.
^c Diet supplementation with retinoids was initiated at 52 days of age
and was continued until the study was terminated 180 days after
administration of MNU. Treatment with retinoids is stated in millimoles of
retinoid per kilogram of diet (Wayne meal).
^d Female Sprague-Dawley rats received one i.v. injection of MNU (50
mg/kg of body weight) at 50 days of age.

[16] = Shealy et al., 1997; cited from earlier work
[17] = Expt. 2, 0.5 mmol/kg diet, 90 days
[18] = Expt. 2, 1 mmol/kg diet, 90 days
[19] = Expt. 2, 2 mmol/kg diet, 90 days
[20] = oral gavage in corn oil, 28-29 days

SMILES: COc1ccc(COC/C=C(C)/C=C/C=C(C)/C=C/C2=C(C)CCCC2(C)C)cc1OC [Compound 3a, Retinyl 3,4-Dimethoxybenzyl Ether]
- inhibition of papilloma formation (mouse-skin papillomas): ineffective in inhibiting papilloma formation
- activity in ODC assay [1]: not active in the ODC assay
- Percent Inhibition of [3H] Retinol Binding (CRBP Assay) [2]: 62 ± 8%

SMILES: COc1ccc(OC)c(COC/C=C(C)/C=C/C=C(C)/C=C/C2=C(C)CCCC2(C)C)c1 [Compound 3b, Retinyl 2,5-Dimethoxybenzyl Ether]
- inhibition of papilloma formation (mouse-skin papillomas): ineffective in inhibiting papilloma formation
- Kp at 24 h [3]: 38 ± 20
- activity in ODC assay [1]: not active in the ODC assay
- effectiveness compared with RTMBE ([4]; 90-day assays, MNU-induced mammary carcinogenesis): less effective than was RTMBE
- reductions in the number of tumors per rat ([4]; 90-day study, 1 and 2 mmol/kg of diet): 26-52%
- effectiveness in reducing the number of tumors per rat ([4]; 90 days, in feed): effective
- Tumors, % of Control Gp. [4, 17]: 77%
- Tumors, Avg. No. per Rat [4, 17]: 2.7
- Tumors, % of Control Gp. [4, 18]: 48%
- Tumors, Avg. No. per Rat [4, 18]: 1.7
- Tumors, % of Control Gp. [4, 19]: 74%
- Tumors, Avg. No. per Rat [4, 19]: 2.6
- stability in weakly acidic ethanol (formation of anhydroretinol, 4) [5]: 4 is isolated
- binding to CRBP, in words ([2]; 150-fold molar excess): good binder to CRBP
- Percent Inhibition of [3H] Retinol Binding (CRBP Assay) [2]: 59 ± 13%

SMILES: COC/C=C(C)/C=C/C=C(C)/C=C/C1=C(C)CCCC1(C)C [RME, retinyl methyl ether]
- binding to CRBP [6]: bind to cellular retinol-binding protein (CRBP)
- conversion (demethylation) to retinol or its analogue [7]: demethylated to retinol in rat liver; also recorded: converted, respectively, to retinol or its TMMP analogue; also recorded: demethylation of RME by microsomal oxidases to retinol
- inhibition of binding of tritiated retinol (RBP), relative to retinol [8]: 100%
- stability in refluxing ethanol [9]: only minor degradation
- accumulation of retinyl palmitate in the liver [10]: a toxic effect produced by efficacious amounts
- Toxic Dose [11, 20]: > 20 mg/kg day and < 40 mg/kg day
- toxic dose from body-weight data [11, 20]: < 40 mg/kg/day
- suppression of 7,12-DMBA-induced mammary cancer ([12]; rats, Grubbs et al, 1977): suppress
- suppression of MNU-induced mammary cancer ([12]; rats, 1997): suppress
- toxicity in mammary carcinogenesis study [13]: RME was (at 2 mmol/kg of diet)
- toxic dose in the feed after 90 days [13]: > 1 mmole/kg of diet and < 2 mmole/kg of diet

SMILES: C#CCOC/C=C(C)/C=C/C=C(C)/C=C/C1=C(C)CCCC1(C)C [RPE, retinyl propynyl ether]
- inhibition of [3H] retinol-binding (RBP), relative to that of retinol [14]: 70%
- reduction of average number of tumors per rat ([15]; after 90 days, 2 mmol/kg diet (Table 7)): 44%
- reduction in the average number of tumors per rat ([15]; by the end of the 180-day study, 2 mmol/kg diet (Table 7)): 16%
- % of Control Gp., Day 90 ([15]; with MNU, 0.5 mmol/kg diet): 74%
- % of Control Gp., Day 180 ([15]; with MNU, 0.5 mmol/kg diet): 97%
- Avg No. Per Rat (palpable mammary tumors), Day 90 ([15]; with MNU, 0.5 mmol/kg diet): 1.7
- Avg No. Per Rat (palpable mammary tumors), Day 180 ([15]; with MNU, 0.5 mmol/kg diet): 6.2
- % of Control Gp., Day 90 ([15]; with MNU, 2 mmol/kg diet): 56%
- % of Control Gp., Day 180 ([15]; with MNU, 2 mmol/kg diet): 84%
- Avg No. Per Rat (palpable mammary tumors), Day 90 ([15]; with MNU, 2 mmol/kg diet): 1.3
- Avg No. Per Rat (palpable mammary tumors), Day 180 ([15]; with MNU, 2 mmol/kg diet): 5.4
- Avg No. Per Rat (palpable mammary tumors), Day 180 ([15]; without MNU, 0.5 mmol/kg diet): 0
- Avg No. Per Rat (palpable mammary tumors), Day 180 ([15]; without MNU, 2 mmol/kg diet): 0
- stability in refluxing ethanol [9]: intramolecular cyclization
- stability in the solid state and in solution ([9]; Shealy et al., 1996, 1997): slowly undergoes an intramolecular Diels-Alder reaction
- accumulation in mammary tissue [10]: accumulated in rat mammary tissue
- accumulation of retinyl palmitate in the liver [10]: did not cause; also recorded: some increase in retinyl palmitate in the liver
- recovery from the feed of rats [16]: recoverable from the feed of rats
- NOAEL ([11]; mouse, in vivo, po): 43 mg/kg/day
- Toxic Dose [11, 20]: > 43 mg/kg day
- reduction of average number of tumors per rat ([12]; earlier 90-day study, 2 mmol/kg of diet, MNU, Shealy et al., 1997): 48%
- suppression of MNU-induced mammary cancer ([12]; rats, 1997): inhibited the development of MNU-induced mammary cancer; also recorded: more effective than retinyl acetate
- toxicity in mammary carcinogenesis study [13]: not toxireas
- toxic dose in the feed after 90 days [13]: > 2 mmole/kg of diet
